From ChEMBL document CHEMBL1201862, “PubChem BioAssay data set” (2004)
The source made the active and inactive calls.

Key:
[1] = NIH-3T3 fibroblast cytotoxicity, dose response, cytotoxicity control, cell-based, fluorescence, Alamar Blue, secondary assay (AID 2327); format: functional;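 also: NIH-3T3 mouse fibroblasts cultured with fluconazole at 8 µg/mL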
[2] = luciferase reporter signal suppression in cells – H4 neuroglioma cells, luminescence, dose response (AID 1990); format: functional, cell-based
[3] = Luminescence Cell-Based Dose Response HTS to Identify Inhibitors of 5'UTR Stem-Loop Driven Prion Protein mRNA Translation in H4 Neuroglioblastoma Cells. [Related pubchem assays: 1827 (Project Summary), 1813 (Primary HTS)]; format: functional
[4] = alpha-synuclein stem-loop luciferase translation blockers – H4 neuroglioma cells, luminescence, confirmation (AID 1988); format: functional, cell-based
[5] = Trypanosoma cruzi growth suppression in host cells – NIH3T3 host cells, beta-gal luminescence, confirmation (AID 2044); format: functional, cell-based;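 also: intracellular parasites grown in NIH/3T3 mouse fibroblasts as host cells; luminescent beta-galactosidase reporter signal from transgenic T. cruzi replicating inside host cells; inhibitors lower the luminescence signal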
[6] = target: T1, Calpain-2 catalytic subunit (Sus scrofa, UniProt P43367); assay: m-calpain protease blockers, concentration series – biochemical, fluorogenic peptide substrate, dose response (AID 1420); format: functional
T1 sequence (P43367 whole entry): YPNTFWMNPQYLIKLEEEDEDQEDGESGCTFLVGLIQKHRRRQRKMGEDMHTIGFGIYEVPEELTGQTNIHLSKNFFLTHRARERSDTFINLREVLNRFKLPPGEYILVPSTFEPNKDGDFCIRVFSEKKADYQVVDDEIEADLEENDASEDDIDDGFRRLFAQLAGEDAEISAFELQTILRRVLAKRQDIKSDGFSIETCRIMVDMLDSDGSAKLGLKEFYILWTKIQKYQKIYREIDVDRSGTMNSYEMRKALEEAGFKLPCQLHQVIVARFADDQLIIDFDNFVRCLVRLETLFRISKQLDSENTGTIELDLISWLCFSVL

[7] = NIH3T3 cell viability loss – ATP luminescence, mouse fibroblasts, counter-screen, dose response (AID 2010); format: functional, cell-based;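 also: cells exposed to compound for about 90 hours before reading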
[8] = target: Neurotensin receptor type 1 (Homo sapiens, UniProt P30989); format: functional;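 also: Image-based confirmatory dose-response assay measuring agonist activity at NTR1; NTR1-expressing U2OS osteosarcoma cells imaged for beta-arrestin GFP spot formation; agonist potency where compounds increase beta-arrestin recruitment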
[9] = HEK-293T viability loss after treatment – luminescence, T-cell screen hits, cytotoxicity control for TCR NF-kB inhibitor project, dose response (AID 489026); format: functional, cell-based;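 also: cells exposed to compound about 14 hours before the viability readout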
[10] = target: DNA dC->dU-editing enzyme APOBEC-3G (Homo sapiens, UniProt Q9HC16); assay: Dose Response confirmation of small molecule APOBEC3G DNA Deaminase Inhibitors via a fluorescence-based single-stranded DNA deaminase assay. [Related pubchem assays (depositor defined):AID493012, AID493028]; format: functional
[11] = target: T2, Heat shock factor protein 1 (Mus musculus, UniProt P38532); assay: decrease of HSF1-responsive luciferase luminescence – cell-based, NIH3T3, dose retest, confirmation (AID 2382); format: functional;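 also: NIH3T3 fibroblasts with HSF1-driven luciferase reporter stressed by proteasome inhibitor MG132; luminescence from HSF1-driven luciferase expression after 8 hours of MG132 stress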
T2 sequence (P38532 whole entry): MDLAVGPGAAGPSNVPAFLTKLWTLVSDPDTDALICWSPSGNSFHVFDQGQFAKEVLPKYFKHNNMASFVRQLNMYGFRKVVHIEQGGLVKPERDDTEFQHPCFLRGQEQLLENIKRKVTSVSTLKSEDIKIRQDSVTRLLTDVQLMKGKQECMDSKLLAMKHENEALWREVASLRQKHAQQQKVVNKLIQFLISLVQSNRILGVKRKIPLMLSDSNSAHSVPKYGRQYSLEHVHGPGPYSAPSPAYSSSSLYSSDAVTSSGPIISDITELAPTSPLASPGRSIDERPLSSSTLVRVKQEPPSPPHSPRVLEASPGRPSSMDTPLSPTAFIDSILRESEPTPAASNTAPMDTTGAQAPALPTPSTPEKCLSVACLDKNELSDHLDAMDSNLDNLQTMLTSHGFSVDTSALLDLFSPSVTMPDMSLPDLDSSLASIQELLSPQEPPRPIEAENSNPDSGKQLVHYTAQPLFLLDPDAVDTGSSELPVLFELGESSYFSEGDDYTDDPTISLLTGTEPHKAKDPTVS

[12] = target: Luciferin 4-monooxygenase (Photinus pyralis, UniProt P08659); assay: inhibition of purified Photinus pyralis luciferase – biochemical, luminescence, dose response (AID 1891)
Tumor necrosis factor = Tumor necrosis factor (Homo sapiens, UniProt P01375); assay: analog potency on TNFa NF-kB signaling – cell-based, revised, SAR follow-up (AID 2337); format: functional
[13] = target: Nucleotide-binding oligomerization domain-containing protein 1 (Homo sapiens, UniProt Q9Y239); assay: blockers of NOD1 pathway activity – revised, SAR follow-up (AID 2333); format: functional
[14] = Luminescence Cell-Based Dose Retest to Confirm Inhibitors of Cancer Stem Cells. [Related pubchem assays (depositor defined):AID2717, AID2721]; format: functional; conditions: Homo sapiens
[15] = Fluorescence-based cell-based high throughput dose response assay for inhibitors of the interaction of nucleotide-binding oligomerization domain containing 2 (NOD2) and the receptor-interacting serine-threonine kinase 2 (RIPK2).; format: functional; conditions: Homo sapiens
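For AC50 in this document: cells exposed to compound for roughly 70 hours or longer before luminescence read.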

Sequence of Neurotensin receptor type 1 (P30989 whole entry): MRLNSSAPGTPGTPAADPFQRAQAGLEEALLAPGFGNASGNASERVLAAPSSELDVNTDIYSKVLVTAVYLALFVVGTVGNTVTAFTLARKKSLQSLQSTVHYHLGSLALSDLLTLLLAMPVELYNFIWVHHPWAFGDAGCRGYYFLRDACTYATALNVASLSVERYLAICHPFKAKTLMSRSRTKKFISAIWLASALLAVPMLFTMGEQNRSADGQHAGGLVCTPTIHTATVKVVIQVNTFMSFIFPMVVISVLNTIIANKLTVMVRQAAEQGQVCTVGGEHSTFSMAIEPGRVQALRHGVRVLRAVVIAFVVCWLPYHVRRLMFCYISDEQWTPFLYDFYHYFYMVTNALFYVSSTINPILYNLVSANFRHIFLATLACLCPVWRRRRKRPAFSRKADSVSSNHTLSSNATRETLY
Sequence of Nucleotide-binding oligomerization domain-containing protein 1 (Q9Y239 whole entry, the tested form may be a part): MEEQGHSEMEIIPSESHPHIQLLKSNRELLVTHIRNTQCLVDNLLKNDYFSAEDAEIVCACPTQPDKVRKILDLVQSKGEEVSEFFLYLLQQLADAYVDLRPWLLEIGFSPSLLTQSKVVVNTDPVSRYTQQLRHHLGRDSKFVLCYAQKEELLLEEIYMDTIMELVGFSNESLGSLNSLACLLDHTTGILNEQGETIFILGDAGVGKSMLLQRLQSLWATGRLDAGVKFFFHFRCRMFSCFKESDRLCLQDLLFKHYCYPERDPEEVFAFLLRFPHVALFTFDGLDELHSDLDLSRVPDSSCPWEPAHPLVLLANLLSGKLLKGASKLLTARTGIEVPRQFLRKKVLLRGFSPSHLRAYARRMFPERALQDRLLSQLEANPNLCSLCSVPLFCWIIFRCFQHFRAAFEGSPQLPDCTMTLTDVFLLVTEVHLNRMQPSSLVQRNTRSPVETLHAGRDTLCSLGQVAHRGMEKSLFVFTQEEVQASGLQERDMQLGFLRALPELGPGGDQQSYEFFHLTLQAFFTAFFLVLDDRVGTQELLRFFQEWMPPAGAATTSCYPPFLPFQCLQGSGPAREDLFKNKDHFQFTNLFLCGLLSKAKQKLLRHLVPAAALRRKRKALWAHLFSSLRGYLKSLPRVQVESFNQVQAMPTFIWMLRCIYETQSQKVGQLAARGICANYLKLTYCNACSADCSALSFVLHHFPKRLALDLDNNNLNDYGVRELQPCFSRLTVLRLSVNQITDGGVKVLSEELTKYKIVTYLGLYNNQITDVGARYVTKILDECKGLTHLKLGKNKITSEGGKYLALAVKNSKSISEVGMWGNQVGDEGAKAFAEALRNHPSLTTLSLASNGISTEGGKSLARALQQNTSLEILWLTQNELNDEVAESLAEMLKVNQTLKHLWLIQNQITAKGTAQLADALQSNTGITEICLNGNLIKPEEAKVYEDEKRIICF
Sequence of DNA dC->dU-editing enzyme APOBEC-3G (Q9HC16 whole entry): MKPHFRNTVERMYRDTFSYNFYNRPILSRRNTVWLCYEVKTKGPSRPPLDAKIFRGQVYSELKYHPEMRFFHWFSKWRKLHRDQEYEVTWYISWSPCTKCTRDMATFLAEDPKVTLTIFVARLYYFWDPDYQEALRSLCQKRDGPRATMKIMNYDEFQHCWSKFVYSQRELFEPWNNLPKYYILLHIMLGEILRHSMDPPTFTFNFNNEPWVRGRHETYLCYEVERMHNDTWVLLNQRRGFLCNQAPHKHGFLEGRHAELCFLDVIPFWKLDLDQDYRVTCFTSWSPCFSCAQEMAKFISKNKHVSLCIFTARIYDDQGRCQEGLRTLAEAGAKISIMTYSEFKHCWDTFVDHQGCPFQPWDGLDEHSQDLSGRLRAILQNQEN
Sequence of Luciferin 4-monooxygenase (P08659 whole entry): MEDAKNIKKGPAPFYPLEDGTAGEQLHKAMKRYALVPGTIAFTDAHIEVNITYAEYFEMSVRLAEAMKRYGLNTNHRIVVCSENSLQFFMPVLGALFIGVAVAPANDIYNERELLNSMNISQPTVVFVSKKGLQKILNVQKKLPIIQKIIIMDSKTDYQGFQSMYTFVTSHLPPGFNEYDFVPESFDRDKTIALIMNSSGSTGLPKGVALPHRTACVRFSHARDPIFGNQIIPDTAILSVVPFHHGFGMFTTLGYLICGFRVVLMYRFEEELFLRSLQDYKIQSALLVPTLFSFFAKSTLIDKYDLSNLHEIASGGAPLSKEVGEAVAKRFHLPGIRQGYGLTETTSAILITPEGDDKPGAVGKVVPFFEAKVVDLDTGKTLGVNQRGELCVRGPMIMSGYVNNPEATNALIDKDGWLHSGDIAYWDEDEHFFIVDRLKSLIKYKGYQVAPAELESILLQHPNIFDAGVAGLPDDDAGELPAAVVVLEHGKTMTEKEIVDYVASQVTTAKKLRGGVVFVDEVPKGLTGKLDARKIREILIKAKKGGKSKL
Sequence of Tumor necrosis factor (P01375 whole entry, the tested form may be a part): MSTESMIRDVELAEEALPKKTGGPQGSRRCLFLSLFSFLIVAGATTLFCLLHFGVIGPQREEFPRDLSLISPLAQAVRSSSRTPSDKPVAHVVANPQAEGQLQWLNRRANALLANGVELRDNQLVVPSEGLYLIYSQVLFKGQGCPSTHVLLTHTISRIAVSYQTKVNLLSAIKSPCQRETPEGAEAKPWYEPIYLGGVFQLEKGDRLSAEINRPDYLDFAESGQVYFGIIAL

## CCCCCCCCCn1c2c(c(=N)c3c1CCC3)CCCC2
[1]
  EC50: 60.2 µM (active)
[2]
  EC50: 6.69 µM (active)
[3]
  EC50: 6.11 µM (active)
[4]
  EC50: 3.52 µM (active)
[5]
  EC50: < 0.1 µM (active)
[6]
  IC50: 4.68 µM (active)
[7]
  EC50: 3.44 µM (active)
[8]
  EC50: 6.65 µM (active)
[9]
  IC50: 42.1 µM (inactive)
cells
  EC50: 0.011 µM (active)

## CCNc1nc(NCC)n2c(SCC(=O)Nc3ccc(CC)cc3)nnc2n1
[10]
  IC50: 75.6 µM (active)

## CC(C)(C)c1ccc(C(=O)ON=C(N)c2ccccc2)cc1
[11]
  EC50: < 0.16 µM (active)
[12]
  EC50: 5.63 µM (active)
Tumor necrosis factor
  IC50: 1.51 µM (active)
[13]
  IC50: 2.84 µM (active)

## COc1ccc(C(=O)/C=C2/C(=O)Nc3ccccc32)c(OC)c1
[14]
  AC50: 5.87 µM (active)
[8]
  EC50: 24.2 µM (inactive)
[15]
  IC50: 19.5 µM (inactive)
